Earlier results on 1 compound are cited in patent US20230023032A1, “SUSTAINED RELEASE COMPOSITIONS COMPRISING LIOTHYRONINE” (Amneal Complex Products Research LLC, priority 2020, published 2023).

Each structure is given as a SMILES string.

The conditions of the series: administered in an immediate release form.

For `N[C@@H](Cc1cc(I)c(Oc2ccc(O)c(I)c2)c(I)c1)C(=O)O` [liothyronine], the half-life result was “about 10 hours”.
